Data reported in patent publication US20220153766A1, “CONDENSED TRICYCLIC COMPOUND USED AS KINASE INHIBITOR” (Hangzhou Innogate Pharma Co., Ltd., priority 2019, published 2022).

How the values were obtained:
EGFR (C797S) = EGFR (C797S) (Homo sapiens, UniProt P00533, C797S); assay: EGFR (C797S) kinase activity inhibition, Lantha screen Assay; type: biochemical; details: kinase 10 nM, ATP 0.1 μM
Protocol: 1. EGFR (C797S) Kinase Activity Inhibition Experiment: The Lantha screen Assay method was used to test the inhibitory activity of the compounds at a kinase EGFR (C797S) concentration of 10 nM and an ATP concentration of 0.1 μM. The control samples were Staurosporine. Experimental Steps: […] 2) Control sample Staurosporine and test samples preparation: Staurosporine and the compounds of the embodiment of the present invention are formulated into a gradient concentration solution in 100% DMSO, and diluted to 10% DMSO with the above-mentioned buffer, and added to a 384-well plate. For example, if the initial concentration of the compound is 10 μM, 100% DMSO is used to prepare a 1000 μM solution, and 10 concentration gradients are diluted, and 100 nL solution is transferred to a 384-well plate with Echo*LIQUID HANDLE RS (LABCYTE, USA). […] Transfer 5 μL to the 384-well plate and incubate with the compound for 10-15 minutes. […] Transfer 5 μL to the 384-well plate to initiate the reaction, and incubate at room temperature for 30 minutes. [table] 5) Use TR-Fret dilution buffer to prepare 2-fold detection solution. The final concentration of Antibody is 2 nM and the final concentration of EDTA is 10 mM. Transfer 10 μL of detection solution to the reaction wells of the 384-well plate, shake and mix, and incubate at room temperature for 60 min. 6) Read the ratio of excitation at 340 nm and emission at 520 nm to 495 nm on Envision, and calculate the inhibition rate. 7) Fit IC50 with XL-fit software.

ALK = ALK (Homo sapiens, UniProt Q9UM73); assay: ALK kinase activity inhibition, Caliper mobility shift assay, method 1; type: biochemical
Protocol: 2. ALK Kinase Activity Inhibition Experiment: Method 1: In vitro enzymatic activity of ALK was measured using Caliper mobility shift assay. […] Add 10 μL of 2.5-fold enzyme solution and incubate at room temperature for 10 minutes, then add 10 μL of 2.5-fold substrates (Peptide FAM-P22 and ATP) solution. […] Read conversion rate data on Caliper EZ Reader II (Caliper Life Sciences). Convert the conversion rate into inhibition rate (% inhibition=(max−conversion rate)/(max−min)*100). Max refers to the conversion rate of the DMSO control, and min refers to the conversion rate without enzyme activity. With the compound concentration and inhibition rate on the abscissa and ordinate, draw the curve, use XLFit excel add-in version 5.4.0.8 software to fit the curve and calculate the IC50.

[1] = molecular target: Ba/F3_EGFR del19/T790M/C797S cells (Homo sapiens, UniProt P00533, T790M/C797S, cells depend on it, form not given); assay: Ba/F3_EGFR (del19-T790M-C797S) cell proliferation inhibition, CTG, method 1; type: cell-based; details: 700 cells/well, 72 h, read-out: Ba/F3_EGFR (del19-T790M-C797S) cell proliferation inhibition (IC50 value) Method 1
Protocol: The cells were cultured in a 37° C., 5% CO2 incubator.
Cell plating and compound treatment: 1) Cells are routinely cultured until the cell saturation is 80%-90%, and when the number reaches the requirement, the cells are collected. 2) Resuspend in the corresponding fresh medium, take a small amount of cells to count, and prepare a cell suspension with a suitable density. 3) Inoculate the cell suspension into a 384-well plate at 700 cells/well, 30 μL per well. 4) Use Echo to add the compound to the corresponding cell well. The maximum starting concentration of the compound is 1-10 μM, 3 folds dilution, 8 concentrations.
CTG method detection: 1) Add 30 μL of CTG reagent (CelltiterGlo kit) to each well, and let it stand for 30 minutes at 37° C. and 5% CO2 in the dark. 2) Use Envision instrument to read the chemiluminescence signal value.
Data analysis: IC50 results are analyzed by GraphPad Prism 6 software. […] X: log value of compound concentration; Y: inhibition rate (% inhibition); inhibition rate (% inhibition)=(blank control well reading−compound well reading)/(blank control well reading−positive control reading)×100.

MAP4K1 (HPK1) = MAP4K1 (HPK1) (Homo sapiens, UniProt Q92918); assay: MAP4K1 (HPK1) kinase activity inhibition, Caliper mobility shift assay; type: biochemical; details: kinase 1.25 nM, ATP 10.1 μM
Protocol: 4. MAP4K1 (HPK1) Kinase Activity Inhibition Experiment: Caliper mobility shift assay was used to detect the inhibitory effect of the compound on MAP4K1 (HPK1) kinase activity. The test concentration of the compound starts at 500 nM, and is diluted 5 folds into 5 concentration points. Use a dispenser Echo 550 to transfer 250 nL 100-fold final concentration of the compound to the target plate 3573, add 10 μL of MAP4K1 (HPK1) kinase solution with a final concentration of 1.25 nM, and incubate for 10 minutes at room temperature (the negative control well contains 10 μL kinase buffer and 250 nL 100% DMSO; the positive control well contains 10 μL kinase solution and 250 nL 100% DMSO). On the kinase MAP4K1 (HPK1), add 15 μL of ATP with a final concentration of 10.1 μM and 3 μM substrate peptide No. 25 mixed solution to react for 120 minutes. Add 30 μL of stop solution containing EDTA to stop the kinase reaction. Use Caliper EZ Reader to read the conversion rate. Inhibition rate %=(Average positive control conversion rate %−Sample conversion rate %/(Average positive control conversion rate %−Average negative control conversion rate %). Among them: negative control wells represent the conversion rate readings without enzyme activity; positive control wells represent the conversion rate readings of wells without compound inhibition. Take the log value of the concentration as the X-axis, and the percentage inhibition rate on the Y-axis. Log (inhibitor) vs. response—Variable slope of analysis software GraphPad Prism 5 was used to fit the curve to obtain the IC50 value of each compound on the enzyme activity. Calculation formula: Y=Bottom+(Top−Bottom)/(1+10 ^((Log IC50−X)*HillSlope)).

[2] = Pharmacokinetic study in rats after intragastrical administration; type: in vivo; details: male, rat, plasma, po, SD rats, 4 mg/kg
Protocol: Example 55: Pharmacokinetic Study in Rats
Instruments: XEVO TQ-S LC/MS instrument produced by Waters. All measurement data is collected and processed by Masslynx V4.1 software, and the data is calculated and processed by Microsoft Excel. Using WinNonLin 8.0 software, the statistical moment method was used to calculate the pharmacokinetic parameters. Mainly include kinetic parameters Tmax, T1/2, Cmax, AUClast etc. […] Injection volume: 5 μL.
Animals: 3 male SD rats with a weight range of 200-220 g. After purchase, they will be kept in the laboratory of the Experimental Animal Center for 2 days and then used. They will be fasted for 12 hours predose and 4 hours after dosing. Drinking water is free during the test. After the rats were gavage, blood samples were taken according to the established time point.
Solvent: 0.5% Methylcellulose (aqueous solution containing 0.4% Tween 80 and 1% ethanol). Preparation of the solution for intragastrical administration: accurately weigh the compound, add it to the solvent, and ultrasonically at room temperature for 5 minutes to completely dissolve the drug, and prepare a 0.3 mg/ml medicinal solution.
Pharmaceutical samples: representative compounds of the structure shown in the patented formula (I) of the present invention, generally, multiple samples with similar structures (with a molecular weight difference of more than 2 units) are taken, accurately weighed, and administered together (cassette PK). In this way, multiple compounds can be screened at the same time and their oral absorption rates can be compared. A single administration was also used to study the pharmacokinetics of the drug sample in rats.
After intragastrical administration, blood was taken from the orbit at 0.25, 0.5, 1, 2, 4, 9, 12 and 24 hours, and placed in a plastic centrifuge tube pretreated with sodium heparin. After centrifugation, the supernatant plasma was used for LC-MS/MS analysis.
Accurately weigh the compounds to prepare different concentrations, perform quantitative analysis on mass spectrometry to establish a standard curve, and then test the concentration of the above-mentioned compound in the plasma to obtain the compound concentration at different time points. All measurement data are collected and processed by relevant software, and the statistical moment method is used to calculate the pharmacokinetic parameters (mainly including kinetic parameters Tmax, T1/2, Cmax, AUClast etc). The results are as follows:
Table 7: Pharmacokinetic Parameters of the Compounds after Intragastrical Administration in SD Rats

Sequence of ALK (Q9UM73 19-1620): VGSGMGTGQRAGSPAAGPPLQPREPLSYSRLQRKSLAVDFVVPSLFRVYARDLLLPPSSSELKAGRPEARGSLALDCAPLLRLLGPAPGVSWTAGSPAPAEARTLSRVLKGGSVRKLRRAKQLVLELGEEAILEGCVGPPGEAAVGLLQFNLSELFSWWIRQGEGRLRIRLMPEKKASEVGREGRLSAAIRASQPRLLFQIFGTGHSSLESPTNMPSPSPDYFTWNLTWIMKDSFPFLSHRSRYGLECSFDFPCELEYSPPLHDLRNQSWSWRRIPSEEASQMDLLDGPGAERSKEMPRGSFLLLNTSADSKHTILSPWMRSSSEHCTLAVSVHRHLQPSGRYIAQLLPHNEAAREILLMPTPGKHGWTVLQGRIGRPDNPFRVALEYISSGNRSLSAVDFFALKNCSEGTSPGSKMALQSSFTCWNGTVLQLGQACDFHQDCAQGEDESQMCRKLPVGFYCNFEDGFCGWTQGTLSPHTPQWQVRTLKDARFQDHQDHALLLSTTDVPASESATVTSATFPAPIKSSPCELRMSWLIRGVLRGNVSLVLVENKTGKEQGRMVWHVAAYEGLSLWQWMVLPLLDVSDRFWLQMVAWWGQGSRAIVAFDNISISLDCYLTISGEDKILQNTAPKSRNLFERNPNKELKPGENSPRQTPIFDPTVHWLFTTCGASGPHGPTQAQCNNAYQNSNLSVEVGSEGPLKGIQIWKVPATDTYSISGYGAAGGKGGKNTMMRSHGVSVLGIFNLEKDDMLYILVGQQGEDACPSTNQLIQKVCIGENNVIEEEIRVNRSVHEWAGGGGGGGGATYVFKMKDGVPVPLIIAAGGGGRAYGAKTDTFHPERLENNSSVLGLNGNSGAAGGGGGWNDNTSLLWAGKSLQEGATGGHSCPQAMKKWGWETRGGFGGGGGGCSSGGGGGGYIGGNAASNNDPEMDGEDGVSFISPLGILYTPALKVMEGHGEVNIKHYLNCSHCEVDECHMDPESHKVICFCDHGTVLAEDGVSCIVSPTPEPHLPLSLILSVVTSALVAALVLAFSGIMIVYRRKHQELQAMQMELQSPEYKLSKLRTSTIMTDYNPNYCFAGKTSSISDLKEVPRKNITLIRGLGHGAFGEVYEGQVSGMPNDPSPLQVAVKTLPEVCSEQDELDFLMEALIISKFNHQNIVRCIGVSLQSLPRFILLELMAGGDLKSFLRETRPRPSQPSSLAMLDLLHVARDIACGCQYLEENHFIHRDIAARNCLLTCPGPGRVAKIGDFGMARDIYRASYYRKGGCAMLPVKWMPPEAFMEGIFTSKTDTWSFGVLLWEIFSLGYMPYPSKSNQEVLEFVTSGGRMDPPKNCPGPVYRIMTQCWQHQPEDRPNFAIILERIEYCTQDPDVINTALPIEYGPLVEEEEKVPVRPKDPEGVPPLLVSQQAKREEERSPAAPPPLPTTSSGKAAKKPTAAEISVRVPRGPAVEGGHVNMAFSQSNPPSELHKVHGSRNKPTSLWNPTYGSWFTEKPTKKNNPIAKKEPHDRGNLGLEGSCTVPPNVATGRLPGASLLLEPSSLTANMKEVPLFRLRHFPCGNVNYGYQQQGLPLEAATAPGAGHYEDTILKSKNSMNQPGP
Sequence of Ba/F3_EGFR del19/T790M/C797S cells (P00533 with tags, fused parts or gaps DEL746-750/T790M/C797S, form open): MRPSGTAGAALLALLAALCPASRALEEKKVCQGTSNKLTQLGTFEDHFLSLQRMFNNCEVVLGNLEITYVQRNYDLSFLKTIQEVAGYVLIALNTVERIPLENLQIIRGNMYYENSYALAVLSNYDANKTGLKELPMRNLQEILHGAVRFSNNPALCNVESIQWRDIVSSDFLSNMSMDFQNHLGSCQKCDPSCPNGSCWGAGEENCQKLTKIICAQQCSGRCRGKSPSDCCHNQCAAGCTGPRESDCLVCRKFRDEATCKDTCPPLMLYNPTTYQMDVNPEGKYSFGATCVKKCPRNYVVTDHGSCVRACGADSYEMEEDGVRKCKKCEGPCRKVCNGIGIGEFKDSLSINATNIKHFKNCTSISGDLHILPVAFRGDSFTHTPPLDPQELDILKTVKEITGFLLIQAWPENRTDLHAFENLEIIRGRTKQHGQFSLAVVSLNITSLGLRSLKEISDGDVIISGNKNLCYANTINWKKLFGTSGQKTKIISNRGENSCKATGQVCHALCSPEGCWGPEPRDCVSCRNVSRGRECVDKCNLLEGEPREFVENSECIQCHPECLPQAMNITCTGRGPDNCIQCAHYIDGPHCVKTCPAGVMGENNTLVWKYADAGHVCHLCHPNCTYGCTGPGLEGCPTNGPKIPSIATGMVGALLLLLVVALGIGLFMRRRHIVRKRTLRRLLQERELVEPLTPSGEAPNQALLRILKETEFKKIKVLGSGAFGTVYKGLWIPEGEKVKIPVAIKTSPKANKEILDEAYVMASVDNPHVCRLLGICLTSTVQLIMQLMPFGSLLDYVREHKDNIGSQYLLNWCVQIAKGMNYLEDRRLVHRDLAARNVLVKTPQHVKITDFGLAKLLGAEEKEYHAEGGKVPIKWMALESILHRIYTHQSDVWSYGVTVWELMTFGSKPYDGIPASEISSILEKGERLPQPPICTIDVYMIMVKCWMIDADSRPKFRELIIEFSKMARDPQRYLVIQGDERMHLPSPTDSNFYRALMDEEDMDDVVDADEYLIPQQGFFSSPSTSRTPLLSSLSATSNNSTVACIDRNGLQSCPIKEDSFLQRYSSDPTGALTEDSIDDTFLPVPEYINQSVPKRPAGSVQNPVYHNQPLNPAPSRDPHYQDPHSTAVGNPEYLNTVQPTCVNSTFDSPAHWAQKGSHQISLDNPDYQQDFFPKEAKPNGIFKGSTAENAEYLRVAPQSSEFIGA
Sequence of MAP4K1 (HPK1) (Q92918 whole entry): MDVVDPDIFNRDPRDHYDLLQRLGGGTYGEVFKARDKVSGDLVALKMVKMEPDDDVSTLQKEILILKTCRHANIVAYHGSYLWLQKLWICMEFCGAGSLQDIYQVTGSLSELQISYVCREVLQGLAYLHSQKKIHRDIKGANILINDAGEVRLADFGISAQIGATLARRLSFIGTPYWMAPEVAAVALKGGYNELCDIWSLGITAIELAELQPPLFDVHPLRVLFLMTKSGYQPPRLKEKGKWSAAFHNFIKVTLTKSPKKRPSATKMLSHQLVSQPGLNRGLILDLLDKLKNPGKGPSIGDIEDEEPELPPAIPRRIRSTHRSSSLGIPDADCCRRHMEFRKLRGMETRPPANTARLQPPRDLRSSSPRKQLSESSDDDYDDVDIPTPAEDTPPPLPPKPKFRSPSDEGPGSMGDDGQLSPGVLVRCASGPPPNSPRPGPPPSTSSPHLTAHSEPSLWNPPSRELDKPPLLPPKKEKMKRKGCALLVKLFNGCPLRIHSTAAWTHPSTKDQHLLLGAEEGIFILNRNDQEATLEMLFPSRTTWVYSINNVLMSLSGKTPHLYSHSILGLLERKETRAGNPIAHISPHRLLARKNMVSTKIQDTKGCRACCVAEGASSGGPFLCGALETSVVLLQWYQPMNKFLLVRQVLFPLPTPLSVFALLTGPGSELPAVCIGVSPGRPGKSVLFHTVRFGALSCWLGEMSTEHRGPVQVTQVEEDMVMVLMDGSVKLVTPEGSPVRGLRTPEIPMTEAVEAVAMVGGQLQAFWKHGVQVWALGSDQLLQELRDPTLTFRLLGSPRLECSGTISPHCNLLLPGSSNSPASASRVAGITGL
Sequence of EGFR (C797S) (P00533 25-1210 C797S): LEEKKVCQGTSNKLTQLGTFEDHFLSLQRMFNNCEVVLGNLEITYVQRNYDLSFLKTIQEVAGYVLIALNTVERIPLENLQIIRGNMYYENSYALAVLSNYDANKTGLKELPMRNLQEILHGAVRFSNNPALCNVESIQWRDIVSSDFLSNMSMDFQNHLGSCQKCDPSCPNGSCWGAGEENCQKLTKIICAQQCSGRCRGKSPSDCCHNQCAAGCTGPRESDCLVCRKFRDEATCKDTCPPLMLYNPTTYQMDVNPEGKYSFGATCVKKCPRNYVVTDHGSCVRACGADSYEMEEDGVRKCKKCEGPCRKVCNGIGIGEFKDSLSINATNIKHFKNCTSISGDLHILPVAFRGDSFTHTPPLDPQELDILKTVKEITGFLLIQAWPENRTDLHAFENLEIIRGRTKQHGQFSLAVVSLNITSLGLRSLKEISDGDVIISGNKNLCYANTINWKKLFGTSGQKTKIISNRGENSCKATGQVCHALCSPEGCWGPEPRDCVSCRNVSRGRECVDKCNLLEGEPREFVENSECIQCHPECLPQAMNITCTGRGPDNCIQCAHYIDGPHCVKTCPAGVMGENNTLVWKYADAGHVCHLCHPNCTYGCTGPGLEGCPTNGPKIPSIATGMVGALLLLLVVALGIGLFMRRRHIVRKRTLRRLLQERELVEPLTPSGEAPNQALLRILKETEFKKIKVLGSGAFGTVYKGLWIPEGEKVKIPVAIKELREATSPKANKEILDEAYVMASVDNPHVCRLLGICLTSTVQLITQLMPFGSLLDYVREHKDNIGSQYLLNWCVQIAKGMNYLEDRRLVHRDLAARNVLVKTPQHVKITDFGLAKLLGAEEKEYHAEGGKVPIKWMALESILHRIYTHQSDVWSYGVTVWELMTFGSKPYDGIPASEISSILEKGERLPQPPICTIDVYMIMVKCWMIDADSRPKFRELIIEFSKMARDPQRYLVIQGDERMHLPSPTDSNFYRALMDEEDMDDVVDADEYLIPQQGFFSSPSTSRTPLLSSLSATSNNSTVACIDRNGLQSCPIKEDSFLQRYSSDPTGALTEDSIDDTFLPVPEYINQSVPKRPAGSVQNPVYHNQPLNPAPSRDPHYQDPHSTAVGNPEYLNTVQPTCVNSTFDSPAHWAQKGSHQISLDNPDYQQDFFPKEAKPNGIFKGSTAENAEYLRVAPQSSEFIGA

CP(C)(=O)c1ccccc1Nc1nc(Nc2ccc3c(c2)OC[C@H]2CNCCN32)ncc1Cl [Compound 4R]
IC50 (EGFR (C797S)): 1 to 50 nM
IC50 (ALK): 1 to 50 nM
GI50 [1]: 20 to 100 nM

COCCN1CCN2c3ccc(Nc4ncc(Cl)c(Nc5ccccc5P(C)(C)=O)n4)cc3OC[C@H]2C1 [Compound 10R]
IC50 (EGFR (C797S)): 1 to 50 nM
IC50 (ALK): 1 to 50 nM
GI50 [1]: 20 to 100 nM

C=CC(=O)N1CCN2c3ccc(Nc4ncc(Cl)c(Nc5ccccc5P(C)(C)=O)n4)cc3OC[C@@H]2C1 [Compound 6S]
IC50 (EGFR (C797S)): 1 to 50 nM
IC50 (ALK): 1 to 50 nM
GI50 [1]: 20 to 100 nM

Cc1cc(Nc2ncc(Cl)c(Nc3ccccc3P(C)(C)=O)n2)cc2c1N1CCNC[C@@H]1CO2 [Compound 23R]
GI50 [1]: 20 to 100 nM

CCN1CCN2c3ccc(Nc4ncc(Cl)c(Nc5ccccc5P(C)(C)=O)n4)cc3OC[C@H]2C1 [Compound 8R]
IC50 (EGFR (C797S)): 1 to 50 nM
IC50 (ALK): 1 to 50 nM
GI50 [1]: 20 to 100 nM

CC(=O)N1CCN2c3ccc(Nc4ncc(Cl)c(Nc5ccccc5P(C)(C)=O)n4)cc3OC[C@H]2C1 [Compound 5R]
IC50 (EGFR (C797S)): 50 to 250 nM
IC50 (ALK): 1 to 50 nM
GI50 [1]: 100 to 200 nM

CP(C)(=O)c1ccccc1Nc1nc(Nc2ccc3c(c2)OC[C@H]2CN(CC(F)(F)F)CCN32)ncc1Cl [Compound 13R]
IC50 (EGFR (C797S)): 50 to 250 nM
IC50 (ALK): 50 to 250 nM
GI50 [1]: 20 to 100 nM

Cc1cc(Nc2ncc(Cl)c(Nc3ccccc3P(C)(C)=O)n2)cc2c1OC[C@@H]1CNCCN21 [Compound 24S]
GI50 [1]: 20 to 100 nM

C#CC(=O)N1CCN2c3ccc(Nc4ncc(Cl)c(Nc5ccccc5P(C)(C)=O)n4)cc3OC[C@H]2C1 [Compound 17R]
GI50 [1]: < 20 nM

CN(C)CCN1CCN2c3ccc(Nc4ncc(Cl)c(Nc5ccccc5P(C)(C)=O)n4)cc3OC[C@H]2C1 [Compound 14R]
IC50 (EGFR (C797S)): 50 to 250 nM
IC50 (ALK): 50 to 250 nM
GI50 [1]: 100 to 200 nM
IC50 (MAP4K1 (HPK1)): 1 to 10 nM

CN1CCN2c3ccc(Nc4ncc(Cl)c(Nc5ccccc5P(C)(C)=O)n4)cc3OCC2C1 (racemic) [Compound 1]
IC50 (EGFR (C797S)): 1 to 50 nM
IC50 (ALK): 1 to 50 nM

C=CC(=O)N1CCN2c3ccc(Nc4ncc(Cl)c(Nc5ccccc5P(C)(C)=O)n4)cc3OC[C@H]2C1 [Compound 6R]
IC50 (EGFR (C797S)): 50 to 250 nM
IC50 (ALK): 1 to 50 nM
GI50 [1]: 20 to 100 nM

CN1CCN2c3ccc(Nc4ncc(Cl)c(Nc5ccccc5P(C)(C)=O)n4)cc3OC[C@@H]2C1 [Compound 1S]
IC50 (EGFR (C797S)): 1 to 50 nM
IC50 (ALK): 1 to 50 nM
GI50 [1]: < 20 nM

C=CS(=O)(=O)N1CCN2c3ccc(Nc4ncc(Cl)c(Nc5ccccc5P(C)(C)=O)n4)cc3OC[C@H]2C1 [Compound 19R]
GI50 [1]: < 20 nM
IC50 (MAP4K1 (HPK1)): ≤ 1 nM

CP(C)(=O)c1ccccc1Nc1nc(Nc2ccc3c(c2)OC[C@H]2CN(c4cccnc4)CCN32)ncc1Cl [Compound 15R]
IC50 (EGFR (C797S)): 50 to 250 nM
IC50 (ALK): 50 to 250 nM
IC50 (MAP4K1 (HPK1)): 1 to 10 nM

CN1CCC(N2CCN3c4ccc(Nc5ncc(Cl)c(Nc6ccccc6P(C)(C)=O)n5)cc4OC[C@H]3C2)CC1 [Compound 11R]
IC50 (EGFR (C797S)): 1 to 50 nM
IC50 (ALK): 1 to 50 nM
GI50 [1]: < 20 nM

CP(C)(=O)c1ccccc1Nc1nc(Nc2ccc3c(c2)OC[C@@H]2COCCN32)ncc1Cl [Compound 12S]
IC50 (EGFR (C797S)): 50 to 250 nM
IC50 (ALK): 1 to 50 nM

COCCCC(=O)N1CCN2c3ccc(Nc4ncc(Cl)c(Nc5ccccc5P(C)(C)=O)n4)cc3OC[C@H]2C1 [Compound 28R]
GI50 [1]: 20 to 100 nM

CN1CCN2c3ccc(Nc4ncc(Cl)c(Nc5ccccc5P(C)(C)=O)n4)cc3OC[C@H]2C1 [Compound 1R]
IC50 (EGFR (C797S)): 1 to 50 nM
Cmax [2]: 23.1 ng/mL
Tmax [2]: 1.08 h
half-life [2]: 12.7 h
AUC(0-t) ([2]; read-out: AUC0-24 h): 102 ng·h/mL
IC50 (ALK): 1 to 50 nM
GI50 [1]: < 20 nM

CP(C)(=O)c1ccccc1Nc1nc(Nc2ccc3c(c2)OC[C@H]2CN(S(=O)(=O)C4CC4)CCN32)ncc1Cl [Compound 2R]
IC50 (EGFR (C797S)): 50 to 250 nM
IC50 (ALK): 1 to 50 nM
GI50 [1]: 20 to 100 nM

CP(C)(=O)c1ccccc1Nc1nc(Nc2ccc3c(c2)OC[C@@H]2CNCCN32)ncc1Cl [Compound 4S]
IC50 (EGFR (C797S)): 1 to 50 nM
IC50 (ALK): 1 to 50 nM
GI50 [1]: 20 to 100 nM

CP(C)(=O)c1ccccc1Nc1nc(Nc2ccc3c(c2)OC[C@H]2CN(CC#N)CCN32)ncc1Cl [Compound 9R]
IC50 (EGFR (C797S)): 250 to 1000 nM
IC50 (ALK): 1 to 50 nM
GI50 [1]: 20 to 100 nM

COC/C=C/C(=O)N1CCN2c3ccc(Nc4ncc(Cl)c(Nc5ccccc5P(C)(C)=O)n4)cc3OC[C@H]2C1 [Compound 20R]
GI50 [1]: 20 to 100 nM

CP(C)(=O)c1ccccc1Nc1nc(Nc2ccc3c(c2)OC[C@H]2CN(C4CCOCC4)CCN32)ncc1Cl [Compound 3R]
IC50 (EGFR (C797S)): 1 to 50 nM
IC50 (ALK): 1 to 50 nM
GI50 [1]: 20 to 100 nM

CP(C)(=O)c1ccccc1Nc1nc(Nc2ccc3c(c2)OC[C@H]2CN(CCO)CCN32)ncc1Cl [Compound 7R]
IC50 (EGFR (C797S)): 50 to 250 nM
IC50 (ALK): 1 to 50 nM
